# Patent publication US9351955B2, “Compounds and pharmaceutical compositions thereof for the treatment of cystic fibrosis” (Galapagos NV, priority 2013, dated 2016)
# How the values were obtained:
# CFTR ΔF508 mutant [1] = biological target: T1, CFTR ΔF508 mutant (Homo sapiens, UniProt P13569, DEL508-508); assay: YFP-halide influx assay for the CFTR-ΔF508 mutation (384 well, CFBE41o- cells, FDSS/μCell); assay type: cell-based; conditions: forskolin 10.67 μM, fluorescence after 36 seconds, read-out: EC50 measured by YFP-halide influx assay for the CFTR-ΔF508
# T1 construct: expressed in transfected cells; host or cells: CFBE41o- (adenoviral transduction)
# Procedure, shortened: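 CFBE41o- cells were adenovirally transduced with ΔF508 CFTR and the YFP H148Q/I152L reporter. Cells were then held 24 h at 27 °C or treated 24 h at 37 °C with a CFTR modulator. Iodide-induced quench was recorded for 2 min, and EC50 was derived from 1−F/F0 at 36 s against compound concentration.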
# CFTR-R117H = biological target: T2, CFTR-R117H (Homo sapiens, UniProt P13569, R117H); assay: YFP-halide influx assay for the CFTR-R117H; assay type: cell-based; conditions: CFTR-R117H mutant; read-out: EC50 measured by YFP-halide influx assay for the CFTR-R117H
# T2 construct: expressed in transfected cells
# Procedure, shortened: (§1)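 HEK293 cells reverse-transfected with mutant CFTR and halide-sensitive YFP H148Q/I152L/F47L reporter, then expressed 24 h at 37 °C, 5% CO2. Fluorescence quenching recorded for 7 s after I^− injection; response expressed as 1−F/F0, with EC50 derived from response versus compound concentration.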
# CFTR-S549N = biological target: T3, CFTR-S549N (Homo sapiens, UniProt P13569, S549N); assay: YFP-halide influx assay for the CFTR-S549N; assay type: cell-based; conditions: CFTR-S549N mutant; read-out: EC50 measured by YFP-halide influx assay for the CFTR-S549N
# T3 construct: expressed in transfected cells
# Procedure, shortened: as §1
# CFTR G551D = CFTR G551D (Homo sapiens, UniProt P13569, G551D); assay: TECC assay, FRT cells stably transfected with G551D CFTR; assay type: cell-based; conditions: high expression CFTR-G551D cells, several values in a cell = repeat determinations
# Protocol: 7.2.3. FRT-CFTR G551D Protocol
# For G551D recordings, Fish Rat Thyroid (FRT) cells stably transfected with G551D CFTR (a low CFTR-G551D expressing cell line and a high expressing CFTR-G551D cell line from Rosalind Franklin University of medicine and science, Chicago, Ill.) are plated on Transwell supports (Costar 6.5 mm Diameter, […]). The cells are grown for 8-10 d under liquid-liquid interface conditions prior to electrophysiological readings. For electrophysiological recording, the FRT-G551D cells are mounted in the TECC heating plate for electrophysiological measurement and kept at 37° C. The epithelia are bathed in hepes buffered culturing medium without FBS on both the basolateral and apical sides. Apical amiloride is used to inhibit the endogenous ENaC currents while forkolin is applied on both apical and basolateral side to stimulate CFTR. After forskolin triggering, compounds are added on both sides to test their potential for increasing CFTR gating. Measurements are done during a 10 minute timeframe with recordings every 2 min. The increase in ISC is used as a measure for the increased CFTR activity, EC50 values can be generated by measuring impact of different concentrations of compound on ISC on the cells, for this purpose each transwell is treated with a different compound concentration. Inh-172, an inhibitor specific for CFTR, is used to test the specificity of the tested compounds.
# When subjected to this protocol, the following EC50 are measured.
# CFTR-G1349D = biological target: T4, CFTR-G1349D (Homo sapiens, UniProt P13569, G1349D); assay: YFP-halide influx assay for the CFTR-G1349D; assay type: cell-based; conditions: CFTR-G1349D mutant; read-out: EC50 measured by YFP-halide influx assay for the CFTR-G1349D
# T4 construct: expressed in transfected cells
# Procedure, shortened: as §1
# CFTR ΔF508 mutant [2] = biological target: T1, CFTR ΔF508 mutant; assay: YFP-halide influx assay for the CFTR-ΔF508 mutation (96 well, CFBE41o- cells); assay type: cell-based; conditions: compounds of the invention, 96 well, forskolin 10.67 μM, read-out: EC50 measured by YFP-halide influx assay for the CFTR-ΔF508
# Procedure, shortened: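 CFBE41o- cells were adenovirally transduced with CFTR ΔF508 and the halide-sensitive YFP H148Q/I152L. They were then corrected either at 27 °C for 24 h or with a CFTR modulator for 24 h at 37 °C. After iodide injection, YFP quenching over 7 s was expressed as 1−F/F0, and EC50 was derived from the concentration–response plot.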
# CFTR-G178R = biological target: T5, CFTR-G178R (Homo sapiens, UniProt P13569, G178R); assay: YFP-halide influx assay for the CFTR-G178R; assay type: cell-based; conditions: read-out: EC50 measured by YFP-halide influx assay for the CFTR-G178R
# T5 construct: expressed in transfected cells
# Procedure, shortened: as §1
# CFTR G551D mutant = biological target: T6, CFTR G551D mutant (Homo sapiens, UniProt P13569, G551D); assay: YFP-halide influx assay for the CFTR-G551D mutation (HEK293 cells); assay type: cell-based; conditions: HEK293 cells expressing CFTR G551D and YFP reporter; forskolin 10.67 μM; read-out: EC50 measured by YFP-halide influx assay for the CFTR-G551D
# T6 construct: expressed in transfected cells; host or cells: HEK293 (reverse transfection with plasmids)
# Procedure, shortened: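 HEK293 cells reverse-transfected with CFTR G551D and halide-sensitive YFP, expressed 24 h at 37 °C. Iodide-induced fluorescence quench recorded for 7 s after I^− injection; response as 1−F/F0, EC50 from concentration plot.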
# Lung distribution study = assay type: in vivo, Sprague-Dawley rats; conditions: male, Sprague-Dawley, rat, plasma, oral, 10 mg/kg, exposure values
# Protocol: Sprague-Dawley rats (male, 5-6 weeks old) are obtained from Janvier (France). Rats are acclimatized for at least 5 days before treatment and are kept on a 12 h light/dark cycle. Temperature is maintained at approximately 22° C., and food and water are provided ad libitum. Two days before administration of the test compounds, rats may undergo surgery to place a catheter in the jugular vein under isoflurane anesthesia. After the surgery, rats are housed individually. Rats are deprived of food for at least 16 h before oral dosing and 6 h after. Water is provided ad libitum.
# 8.7.3. Lung Distribution Studies
# Compounds are formulated in 0.5% methylcellulose and EtOH/PEG 200/Methylcellulose 0.5% (10/25/65 v/v/v) by the oral route. Test compounds are orally dosed as a single esophageal gavage at 10 mg/kg under a dosing volume of 5 mL/kg. Each group consists of 12 rats. At each time point, typically 1, 3, 6 and 24 h, animals are euthanized and blood and lung samples are collected. Whole blood samples are centrifuged at 1500 g for 10 min and the resulting plasma samples, along with the lung samples, are stored at −20° C. pending analysis.
# 8.7.4. Quantification of Compound Levels in Plasma and Lung Samples
# Lung samples are milled in the presence of ceramic beads and proteins present in plasma and lung samples are precipitated with an organic solvent. Concentrations of each test compound are determined by an LC-MS/MS method in which the mass spectrometer is operated in positive or negative electrospray mode.
# For each animal, the lung-to-plasma ratio is determined as the ratio between compound concentration in lung and in plasma. At each sampling time point, mean, standard error of the mean (sem) and coefficient of variation (CV %) are calculated using data from three animals.
# T1 sequence (P13569 with tags, fused parts or gaps DEL508-508): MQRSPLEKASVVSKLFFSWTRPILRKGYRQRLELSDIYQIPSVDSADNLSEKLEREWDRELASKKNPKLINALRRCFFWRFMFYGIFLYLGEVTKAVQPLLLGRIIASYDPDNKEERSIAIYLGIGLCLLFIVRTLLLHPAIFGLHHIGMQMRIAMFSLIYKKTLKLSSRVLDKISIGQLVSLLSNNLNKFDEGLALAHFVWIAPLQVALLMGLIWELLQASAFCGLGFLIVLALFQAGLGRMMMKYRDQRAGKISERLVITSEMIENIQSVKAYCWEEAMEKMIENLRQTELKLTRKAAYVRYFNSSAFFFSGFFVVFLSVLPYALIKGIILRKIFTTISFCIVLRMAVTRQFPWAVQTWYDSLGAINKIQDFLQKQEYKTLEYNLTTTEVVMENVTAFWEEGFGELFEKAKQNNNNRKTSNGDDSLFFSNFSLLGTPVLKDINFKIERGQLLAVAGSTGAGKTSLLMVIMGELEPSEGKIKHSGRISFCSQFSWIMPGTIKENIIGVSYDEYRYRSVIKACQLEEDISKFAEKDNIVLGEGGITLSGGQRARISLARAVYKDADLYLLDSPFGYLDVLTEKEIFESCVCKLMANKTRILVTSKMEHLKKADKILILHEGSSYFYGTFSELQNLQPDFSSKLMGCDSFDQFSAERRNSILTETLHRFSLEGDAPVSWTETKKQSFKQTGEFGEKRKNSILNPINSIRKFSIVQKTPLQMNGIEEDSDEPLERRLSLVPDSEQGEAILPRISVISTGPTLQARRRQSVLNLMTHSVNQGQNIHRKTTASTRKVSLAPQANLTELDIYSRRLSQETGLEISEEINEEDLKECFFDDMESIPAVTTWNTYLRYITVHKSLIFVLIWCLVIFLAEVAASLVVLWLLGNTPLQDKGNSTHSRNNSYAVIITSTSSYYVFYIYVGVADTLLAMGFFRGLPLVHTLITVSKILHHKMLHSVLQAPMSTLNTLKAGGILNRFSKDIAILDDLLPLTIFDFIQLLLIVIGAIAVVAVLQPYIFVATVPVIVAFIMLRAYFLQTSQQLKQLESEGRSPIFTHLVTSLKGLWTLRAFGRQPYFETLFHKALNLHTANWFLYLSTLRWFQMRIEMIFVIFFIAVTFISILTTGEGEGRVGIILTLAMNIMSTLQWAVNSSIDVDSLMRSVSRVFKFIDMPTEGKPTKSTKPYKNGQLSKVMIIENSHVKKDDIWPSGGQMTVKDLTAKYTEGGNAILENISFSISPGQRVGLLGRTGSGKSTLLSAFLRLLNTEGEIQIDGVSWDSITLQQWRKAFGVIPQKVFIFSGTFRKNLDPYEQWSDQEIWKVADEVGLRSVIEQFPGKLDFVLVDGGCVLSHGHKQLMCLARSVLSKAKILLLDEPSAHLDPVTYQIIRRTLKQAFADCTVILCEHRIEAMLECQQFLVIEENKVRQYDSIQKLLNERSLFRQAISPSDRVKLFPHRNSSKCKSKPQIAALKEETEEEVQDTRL
# T6 sequence (P13569 whole entry G551D): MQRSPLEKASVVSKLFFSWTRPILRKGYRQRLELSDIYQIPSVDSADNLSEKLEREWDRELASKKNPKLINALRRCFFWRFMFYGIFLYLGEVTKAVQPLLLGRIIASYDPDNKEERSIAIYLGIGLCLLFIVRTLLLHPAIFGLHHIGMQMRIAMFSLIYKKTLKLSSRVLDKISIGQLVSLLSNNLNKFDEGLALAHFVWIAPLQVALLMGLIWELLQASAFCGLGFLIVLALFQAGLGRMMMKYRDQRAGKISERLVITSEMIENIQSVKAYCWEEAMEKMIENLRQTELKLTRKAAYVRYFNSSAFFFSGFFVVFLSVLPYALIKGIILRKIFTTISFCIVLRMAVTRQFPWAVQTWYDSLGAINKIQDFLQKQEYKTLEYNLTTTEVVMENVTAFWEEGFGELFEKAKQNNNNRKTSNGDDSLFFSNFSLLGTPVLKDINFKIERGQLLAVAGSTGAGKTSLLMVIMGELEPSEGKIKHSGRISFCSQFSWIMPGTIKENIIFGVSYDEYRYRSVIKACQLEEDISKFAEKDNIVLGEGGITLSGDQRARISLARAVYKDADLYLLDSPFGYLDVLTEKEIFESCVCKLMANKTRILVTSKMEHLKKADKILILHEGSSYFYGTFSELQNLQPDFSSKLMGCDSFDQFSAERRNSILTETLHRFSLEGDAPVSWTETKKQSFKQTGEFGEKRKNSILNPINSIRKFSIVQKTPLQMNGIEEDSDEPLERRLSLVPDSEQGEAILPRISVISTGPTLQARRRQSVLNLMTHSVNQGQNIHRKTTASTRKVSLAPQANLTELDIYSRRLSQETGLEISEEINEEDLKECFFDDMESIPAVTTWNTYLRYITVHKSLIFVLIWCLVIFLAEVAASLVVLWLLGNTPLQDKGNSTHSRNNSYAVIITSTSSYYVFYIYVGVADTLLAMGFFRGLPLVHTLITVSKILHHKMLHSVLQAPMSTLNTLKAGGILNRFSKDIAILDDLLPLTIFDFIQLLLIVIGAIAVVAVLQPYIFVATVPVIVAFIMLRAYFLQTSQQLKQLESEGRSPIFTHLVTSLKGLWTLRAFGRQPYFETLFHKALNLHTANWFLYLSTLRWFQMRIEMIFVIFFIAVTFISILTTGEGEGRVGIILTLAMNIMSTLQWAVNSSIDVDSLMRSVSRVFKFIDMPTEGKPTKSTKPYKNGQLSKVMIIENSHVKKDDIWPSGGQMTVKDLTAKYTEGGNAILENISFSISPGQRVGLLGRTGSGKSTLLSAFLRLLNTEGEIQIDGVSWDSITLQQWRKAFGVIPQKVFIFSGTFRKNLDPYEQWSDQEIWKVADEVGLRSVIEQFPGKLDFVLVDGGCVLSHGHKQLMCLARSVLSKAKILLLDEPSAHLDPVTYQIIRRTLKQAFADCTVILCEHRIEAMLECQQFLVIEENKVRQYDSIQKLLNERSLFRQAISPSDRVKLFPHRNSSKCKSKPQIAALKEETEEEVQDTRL
# Sequence of CFTR G551D (P13569 whole entry G551D): as above
# T4 sequence (P13569 whole entry G1349D): as the sequence (P13569 whole entry G551D) above, with D551G, G1349D counted along it
# T3 sequence (P13569 whole entry S549N): as the sequence (P13569 whole entry G551D) above, with S549N, D551G counted along it
# T2 sequence (P13569 whole entry R117H): as the sequence (P13569 whole entry G551D) above, with R117H, D551G counted along it
# T5 sequence (P13569 whole entry G178R): as the sequence (P13569 whole entry G551D) above, with G178R, D551G counted along it
EC50 (CFTR ΔF508 mutant [1]),EC50 (CFTR-R117H),EC50 (CFTR-S549N),EC50 (CFTR G551D),EC50 (CFTR-G1349D),EC50 (CFTR ΔF508 mutant [2]),EC50 (CFTR-G178R),EC50 (CFTR G551D mutant),AUC(0-t) (Lung distribution study),Structure (SMILES)
2.44 nM,180 nM,120 nM,43.7 nM,118 nM,3 nM,44.1 nM,183 nM,–,"Cc1cn[nH]c1C(=O)Nc1sc2c(c1C(N)=O)CC(C)(C)OC2(C)C [Compound 35, N-(3-carbamoyl-5,5,7,7-tetramethyl-5,7-dihydro-4H-thieno[2,3-c]pyran-2-yl)-4-methyl-1H-pyrazole-3-carboxamide]"
2.25 nM,–,–,70 nM,–,4.14 nM,–,80.6 nM,439 ng·h/mL,"CC1(C)Cc2c(sc(NC(=O)c3[nH]ncc3Cl)c2C(N)=O)C(C)(C)O1 [Compound 25, N-(3-carbamoyl-5,5,7,7-tetramethyl-5,7-dihydro-4H-thieno[2,3-c]pyran-2-yl)-4-chloro-1H-pyrazole-3-carboxamide]"
10.3 nM,–,–,–,–,15.5 nM,–,193 nM,290 ng·h/mL,"CCc1cc(C(=O)Nc2sc3c(c2C(N)=O)CC(C)(C)OC3(C)C)n[nH]1 [Compound 17, N-(3-carbamoyl-5,5,7,7-tetramethyl-5,7-dihydro-4H-thieno[2,3-c]pyran-2-yl)-5-ethyl-1H-pyrazole-3-carboxamide]"
